Measurements from patent publication US20260364068A1, “ANTIVIRAL USE OF HETEROARYL DERIVATIVE COMPOUND” (UIF (University Industry Foundation), Yonsei University, priority 2022, published 2026).
Like-named read-outs stand apart in the source and are kept apart here.

Key:
Format in all cases: cell-based
[1] = test system: Severe Acute Respiratory Syndrome Coronavirus Type 2; assay: microbe, parasite or virus in culture; settings: Calu-3, 10 uM, read-out: Virus replication inhibition efficacy
[2] = test system: Severe Acute Respiratory Syndrome Coronavirus Type 2; assay: microbe, parasite or virus in culture; settings: Vero, 10 uM, read-out: Virus replication inhibition efficacy
[3] = Cell viability measurement (MTS), Vero cells; settings: monkey
Method in brief: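 Vero cells seeded to ~20% confluency, treated 48 h at 37 °C with compound at 1, 3 or 10 μM (0.5% v/v DMSO). MTS read at 490 nm minus 690 nm background after 1 h. Viability relative to DMSO-only control set at 100%, mean of 2–6 repeats, binned into ranges.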

human ANO6 (variant 5) = target: T1, human ANO6 (variant 5) (Homo sapiens, UniProt Q4KMQ2); assay: Lact C2 assay (phosphatidylserine externalization scramblase function); settings: FRT cells expressing human ANO6, ionomycin 10 μM, read-out: % Inhibition (phosphatidylserine externalization inhibitory activity)
T1 construct: expressed in transfected cells; host or cells: Fisher rat thyroid (FRT) cells
T1 sequence (Q4KMQ2 1-931 isoform Q4KMQ2-2): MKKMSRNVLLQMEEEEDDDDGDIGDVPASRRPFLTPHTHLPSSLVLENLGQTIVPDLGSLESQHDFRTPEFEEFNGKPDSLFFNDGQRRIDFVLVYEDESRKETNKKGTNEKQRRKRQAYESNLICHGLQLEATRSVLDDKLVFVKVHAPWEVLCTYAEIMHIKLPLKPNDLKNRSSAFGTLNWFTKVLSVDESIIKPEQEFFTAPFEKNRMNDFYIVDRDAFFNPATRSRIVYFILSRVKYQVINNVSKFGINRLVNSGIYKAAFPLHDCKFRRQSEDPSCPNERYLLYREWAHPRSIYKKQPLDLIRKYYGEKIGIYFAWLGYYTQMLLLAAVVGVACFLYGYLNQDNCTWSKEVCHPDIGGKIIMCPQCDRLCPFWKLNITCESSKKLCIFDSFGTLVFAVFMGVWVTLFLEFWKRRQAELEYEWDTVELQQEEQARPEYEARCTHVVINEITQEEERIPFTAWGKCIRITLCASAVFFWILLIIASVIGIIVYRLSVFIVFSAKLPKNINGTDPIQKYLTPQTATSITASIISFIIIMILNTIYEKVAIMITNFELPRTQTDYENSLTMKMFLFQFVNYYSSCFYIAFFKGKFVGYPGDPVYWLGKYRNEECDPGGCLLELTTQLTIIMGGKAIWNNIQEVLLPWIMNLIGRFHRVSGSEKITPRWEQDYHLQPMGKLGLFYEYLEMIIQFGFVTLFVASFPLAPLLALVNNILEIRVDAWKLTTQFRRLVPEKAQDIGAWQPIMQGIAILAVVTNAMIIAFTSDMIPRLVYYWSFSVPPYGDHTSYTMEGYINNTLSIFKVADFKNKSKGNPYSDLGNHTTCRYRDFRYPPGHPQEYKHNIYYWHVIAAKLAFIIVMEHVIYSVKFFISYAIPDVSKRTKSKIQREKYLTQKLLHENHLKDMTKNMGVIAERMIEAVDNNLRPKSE
Method: Experimental Example 2: Lact C2 Assay (Measuring Phosphatidylserine Externalization Scramblase Function)
Ionomycin (Alomonelab, cat. #I-700), DAPI (Sigma-Aldrich, cat. #D8417), paraformaldehyde (Biosesang, cat. #P2031), Lionheart FX automated fluorescence microscope (BioTek), Gen5™ software program (BioTek), and Image J analysis software program.
Fisher rat thyroid (FRT) cells expressing human ANO6 (variant 5; GenBank accession no. NP_001191732.1) were cultured at 37 °C under 5% CO2 conditions in DMEM/Ham's F-12 (1:1) medium supplemented with 10% Fetal Bovine Serum, 2 mM […], 100 units/mL penicillin, and 100 μg/mL streptomycin.
Fischer Rat Thyroid (FRT) cells (2×10^4 cells/well) expressing human ANO6 (variant 5) were cultured in a 96-well microplate for 24 hours. After the incubation, the cells were treated with compounds dissolved in DMSO to 1% v/v in each well at each concentration (50 nM, 100 nM, and 1 μM) and reacted for 10 minutes. Thereafter, each well was treated with ionomycin to a final concentration of 10 μM, allowed to react for 10 minutes, and then washed with 200 μL PBS. After washing, each well was treated with 50 μL of Lactadherin-C2 (Lact-C2)-GFP mixed in DMEM medium to a final concentration of 500 nM to stain phosphatidylserine, and cultured at 37 °C for 10 minutes. After completion of the reaction, the cells were washed with 200 μL PBS, and fixed with 4% paraformaldehyde for 5 minutes at room temperature. For morphological analysis, DAPI solution was added, and the cells were incubated for 15 minutes, followed by washing with PBS. The fluorescence intensity of Lact-C2-GFP bound to phosphatidylserine on the cell surface was measured using an automated fluorescence microscope. For quantitative analysis of the fluorescence intensity of Lact-C2-GFP, BioTek Gen5™ software and Image J analysis software programs were used.
Phosphatidylserine externalization inhibitory activity (%) by the compound was calculated through the following analysis method. Specifically, the background fluorescence value was subtracted from the measured Lact-C2-GFP fluorescence value, and the fluorescence value of the ionomycin non-treatment group and the ionomycin-treatment group in the same row where each test group was located in a 96-well microplate were calculated. In order to calculate the inhibitory activity (%) by the compound, the relative inhibitory activity was calculated by setting the compound and ionomycin non-treatment group to 100% inhibitory activity and the ionomycin alone treatment group to 0% inhibitory activity. To derive the results, the test was repeated three times, and the average values of the results were classified according to the range below and shown in Table 4 below (A: >60% inhibition, B: 30 to 60% inhibition, N/A: no test).

[4] = Cell viability measurement (MTS), Calu-3 cells; settings: human
Method in brief: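 Calu-3 cells at about 20% confluency treated with compounds at 1, 3 and 10 μM (0.5% v/v DMSO) for 48 h at 37 °C. MTS added for 1 h; A490 minus A690 background, normalized to DMSO control as 100%; mean of 2–6 repeats, binned into viability ranges.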

[5] = virus strain NCCP-43388, 48 hours
[6] = virus strain NCCP-43344, 48 hours

SMILES	inhibition at 10 µM [1, 5]	inhibition at 10 µM [2, 5]	viability at 48 h, 1 µM [3]	viability at 48 h, 3 µM [3]	inhibition at 1 µM (human ANO6 (variant 5))	viability at 48 h, 10 µM [3]	viability at 48 h, 1 µM [4]	inhibition at 10 µM [1, 6]	inhibition at 10 µM [2, 6]	other results
FC(F)(F)c1ccc2nc(-c3cccc(Nc4ccc(-c5ncccn5)cc4)c3)[nH]c2c1 [Example 27, N-[4-(pyrimidin-2-yl)phenyl]-3-[6-(trifluoromethyl)-1H-benzo[d]imidazol-2-yl]aniline]	> 60%	> 60%	> 80%	> 80%	–	–	–	–	–	–
FC(F)(F)Oc1ccc2nc(-c3cccc(Nc4cnc(-c5ccccn5)cn4)c3)[nH]c2c1 [Example 325, 5-(pyridin-2-yl)-N-(3-(6-(trifluoromethoxy)-1H-benzo[d]imidazol-2-yl)phenyl)pyrazin-2-amine]	–	–	–	–	> 60%	–	–	–	–	–
FC(F)(F)c1ccc2nc(-c3cccc(Nc4ccc(-c5cncnc5)cc4)c3)[nH]c2c1 [Example 28, N-[4-(pyrimidin-5-yl)phenyl]-3-[6-(trifluoromethyl)-1H-benzo[d]imidazol-2-yl]aniline]	> 60%	> 60%	> 80%	–	–	–	–	–	–	–
c1cc(Nc2ccc(-c3cccnn3)cc2)cc(-c2nc3ccccc3[nH]2)c1 [Example 21, 3-(1H-benzo[d]imidazol-2-yl)-N-(4-(pyridazin-3-yl)phenyl)aniline]	> 60%	> 60%	–	> 80%	–	50 to 80%	> 80%	–	–	viability at 48 h, 3 µM [4]: 50 to 80%; viability at 48 h, 10 µM ([4]; 10 μM): 50 to 80%
FC(F)(F)c1ccc2nc(-c3cccc(Nc4ccc(-c5ccncn5)cc4)c3)[nH]c2c1 [Example 24, N-(4-(pyrimidin-4-yl)phenyl)-3-(6-(trifluoromethyl)-1H-benzo[d]imidazol-2-yl)aniline]	–	–	> 80%	> 80%	–	–	> 80%	> 60%	> 60%	–
Clc1cc2nc(-c3cccc(Nc4ccc(-c5ccccc5)nn4)c3)[nH]c2cc1Cl [Example 7, N-(3-(5,6-dichloro-1H-benzo[d]imidazol-2-yl)phenyl)-6-phenylpyridazin-3-amine]	–	–	> 80%	> 80%	–	–	–	30 to 60%	30 to 60%	–
FC(F)Oc1ccc2nc(-c3cccc(Nc4ccc(-c5cccnn5)cc4)c3)[nH]c2c1 [Example 335, 3-(6-(difluoromethoxy)-1H-benzo[d]imidazol-2-yl)-N-(4-(pyridazin-3-yl)phenyl)aniline]	–	–	–	–	> 60%	–	–	–	–	inhibition at 0.05 µM (human ANO6 (variant 5); 50 nM): > 60%
FC(F)(F)c1cc2nc(-c3cccc(Nc4ccc(-c5ccccc5)nn4)c3)[nH]c2cc1Cl [Example 8, N-{3-[6-chloro-5-(trifluoromethyl)-1H-benzo[d]imidazol-2-yl]phenyl}-6-phenylpyridazin-3-amine]	–	–	> 80%	> 80%	–	–	–	30 to 60%	30 to 60%	–
COc1cc2nc(-c3cccc(Nc4ncc(-c5cccnn5)cn4)c3)[nH]c2cc1F [Example 121, N-[3-(6-fluoro-5-methoxy-1H-benzo[d]imidazol-2-yl)phenyl]-5-pyridazin-3-yl-pyrimidin-2-amine]	–	–	–	–	30 to 60%	–	–	–	–	–
FC(F)(F)c1cc2[nH]c(-c3cccc(Nc4cnc(-c5ccccn5)cn4)c3)nc2cn1 [Example 328, 5-(pyridin-2-yl)-N-(3-(6-(trifluoromethyl)-1H-imidazo[4,5-c]pyridin-2-yl)phenyl)pyrazin-2-amine]	–	–	–	–	> 60%	–	–	–	–	–
FC(F)(F)c1ccc2nc(-c3cccc(Nc4ccc(-c5cccnn5)cc4)c3)[nH]c2c1 [Example 23, N-(4-(pyridazin-3-yl)phenyl)-3-(6-(trifluoromethyl)-1H-benzo[d]imidazol-2-yl)aniline]	–	–	> 80%	> 80%	–	–	> 80%	> 60%	> 60%	viability at 48 h, 3 µM [4]: 50 to 80%
c1cnc(-c2ccc(Nc3cccc(-c4nc5ccccc5[nH]4)c3)cc2)nc1 [Example 26, N-[3-(1H-benzo[d]imidazol-2-yl)phenyl]-4-(pyrimidin-2-yl)aniline]	–	–	> 80%	–	–	> 80%	> 80%	> 60%	> 60%	viability at 48 h, 3 µM [4]: 50 to 80%
c1ccc(-c2ccc(Nc3cccc(-c4nc5ccccc5[nH]4)c3)nn2)cc1 [Example 2, N-(3-(1H-benzo[d]imidazol-2-yl)phenyl)-6-phenylpyridazin-3-amine]	> 60%	> 60%	> 80%	> 80%	–	50 to 80%	50 to 80%	–	–	–
c1ccc(-c2ccc(Nc3cccc(-c4nc5ccccc5[nH]4)c3)cc2)nc1 [Example 20, 3-(1H-benzo[d]imidazol-2-yl)-N-(4-(pyridin-2-yl)phenyl)aniline]	> 60%	> 60%	> 80%	–	–	50 to 80%	> 80%	–	–	viability at 48 h, 3 µM [4]: 50 to 80%
c1cc(Nc2ccc(-c3ccncn3)cc2)cc(-c2nc3ccccc3[nH]2)c1 [Example 22, N-[3-(1H-benzo[d]imidazol-2-yl)phenyl]-4-(pyrimidin-4-yl)aniline]	–	–	> 80%	> 80%	–	50 to 80%	> 80%	> 60%	> 60%	–
FC(F)(F)c1ccc2nc(-c3cccc(NC4CCC(c5cccnn5)CC4)c3)[nH]c2c1 (mixture of isomers) [Example 124, N-(4-(pyridazin-3-yl)cyclohexyl)-3-(6-(trifluoromethyl)-1H-benzo[d]imidazol-2-yl)aniline]	–	–	–	–	30 to 60%	–	–	–	–	–
